# Test results: patent publication US20260174784A1, “Molecular Signatures that Predict Risk for Development of Hepatic Encephalopathy” (The Regents of the University of California, priority 2022, published 2026)
# Columns and labels:
# [1] = test system: hepatic encephalopathy; experiment: HE treatment of readmitted TIPS participant 11_a (case course); type: in vivo, human; conditions: for response to HE treatment: first readmission 9 days post-TIPS, lactulose and rifaximin given together
# Excerpt: After the data were collected, the hospital courses of the two participants who were readmitted during the study period were examined. Participant 11_a (FIG. 6C) was a person with a history of cryptogenic cirrhosis with banded esophageal varices but with no prior history of HE. They underwent TIPS procedure due to progressively worsening ascites refractory to diuretic therapy and need for intermittent paracentesis. They were readmitted to the medical intensive care unit 9 days post-TIPS with obtundation requiring intubation for airway protection. Blood was drawn on the day of admission before initiation of hepatic encephalopathy treatment (pre-HET) (FIG. 6C). […] Blood was collected for analysis on the day after treatment initiation (post-HET) (FIG. 6C). They were discharged 9 days later. However, they were readmitted within 72 hours for altered mental status. […] Their encephalopathy resolved after continuous polyethylene glycol infusion via nasojejunal tube, but was again admitted 352 days post-TIPS for HE in the setting of urosepsis.
# [2] = biological target: T1, farnesoid X receptor (FXR) (Homo sapiens, UniProt Q96RI1); conditions: ligand-mediated nuclear receptor; literature ref 48; cited from earlier work
# T1 sequence (Q96RI1 1-486): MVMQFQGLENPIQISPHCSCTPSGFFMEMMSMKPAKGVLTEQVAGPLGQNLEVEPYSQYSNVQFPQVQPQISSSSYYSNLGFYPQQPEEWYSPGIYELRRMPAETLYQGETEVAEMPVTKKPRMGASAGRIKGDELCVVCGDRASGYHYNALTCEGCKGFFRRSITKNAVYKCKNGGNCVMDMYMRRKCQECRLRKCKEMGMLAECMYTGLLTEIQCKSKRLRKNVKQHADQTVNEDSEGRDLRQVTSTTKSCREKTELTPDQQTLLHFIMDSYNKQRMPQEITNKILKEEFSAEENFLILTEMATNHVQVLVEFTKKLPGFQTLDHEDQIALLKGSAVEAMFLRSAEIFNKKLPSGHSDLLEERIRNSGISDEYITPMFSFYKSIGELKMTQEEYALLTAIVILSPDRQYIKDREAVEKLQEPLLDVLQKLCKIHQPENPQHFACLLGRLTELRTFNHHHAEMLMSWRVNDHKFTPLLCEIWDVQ
# [3] = test system: neuronal oxidative damage induced by bilirubin; conditions: supplementation with GUDCA; previous studies in animal models; cited from earlier work
molecule,measurement,setting,value
OC[C@H]1O[C@@H](O[C@@H]2[C@@H](CO)OC(O)(CO)[C@H]2O)[C@H](O)[C@@H](O)[C@H]1O (mixture of isomers) [lactulose],response to HE treatment,[1],responded well
"C[C@H](CCC(=O)NCC(=O)O)[C@H]1CC[C@H]2[C@@H]3[C@@H](O)C[C@@H]4C[C@H](O)CC[C@]4(C)[C@H]3CC[C@]12C [GUDCA, glycoursodeoxycholic acid]",effect on farnesoid X receptor (FXR),[2],directly inhibited
same,neuronal oxidative damage induced by bilirubin,[3],can be inhibited
CO[C@H]1/C=C/O[C@@]2(C)Oc3c(C)c(O)c4c(O)c(c5c(nc6cc(C)ccn65)c4c3C2=O)NC(=O)/C(C)=C\C=C\[C@H](C)[C@H](O)[C@@H](C)[C@@H](O)[C@@H](C)[C@H](OC(C)=O)[C@@H]1C [rifaximin],response to HE treatment,[1],responded well
polyethylene glycol,encephalopathy outcome,"[1]; second readmission, continuous infusion via nasojejunal tube",resolved
